From ChEMBL document CHEMBL5705899 (Biochem J, 2014)
Activity calls are given as the source filed them. The calls are words filed in the database; no cut-off is given here.

Experiments:
[1] = target: Dual specificity tyrosine-phosphorylation-regulated kinase 1A (Homo sapiens) (UniProt Q13627); test: Inhibition of human DYRK1A at 1 uM using RBER-CHKtide as substrate in presence of 33P-ATP by ProQinase assay
[2] = target: Dual specificity tyrosine-phosphorylation-regulated kinase 3 (Homo sapiens) (UniProt O43781); test: Inhibition of human DYRK3 at 1 uM using RBER-IRStide as substrate in presence of 33P-ATP by ProQinase assay
[3] = target: Phosphatidylinositol 4,5-bisphosphate 3-kinase catalytic subunit beta isoform (Homo sapiens, UniProt P42338); test: Inhibition of PI3Kbeta (unknown origin) using PtdIns(4,5)P2 as substrate preincubated for 20 mins followed by substrate addition and measured after 80 mins by Kinase-Glo assay
[4] = target: Phosphatidylinositol 3-kinase C2 domain-containing subunit gamma (Homo sapiens, UniProt O75747); test: Inhibition of human PIK3C2G using PIP2/PS as substrate by ADP-Glo assay
[5] = target: Mitogen-activated protein kinase 11 (Homo sapiens) (UniProt Q15759); test: (§1) Inhibition of recombinant human N-terminal GST-tagged P38beta (1 to 364 residues) expressed in Escherichia coli assessed as remaining activity at 1 uM using MBP as substrate incubated for 30 mins in presence of [gamma-33P]ATP by filter binding method relative to control
[6] = target: Phosphatidylinositol 5-phosphate 4-kinase type-2 alpha (Homo sapiens) (UniProt P48426); test: Inhibition of recombinant human N-terminal His6-tagged PIP5K2alpha (1 to 406 residues) expressed in Escherichia coli at 1 uM using diC8 PI(5)P as substrate incubated for 40 mins by ADP-Glo assay
[7] = target: Inhibitor of nuclear factor kappa-B kinase subunit epsilon (Homo sapiens) (UniProt Q14164); test: Inhibition of human IKKepsilon at 1 uM using RBER-GSK3 as substrate in presence of 33P-ATP by ProQinase assay
[8] = target: CDK2/Cyclin A2 (Homo sapiens) (UniProt P24941+P20248); test: as §1, with “CDK2 (2” for “P38beta (1”, “298 residues)/N-terminal GST-tagged Cyclin A2 (171 to 432” for “364”, “YSPTSPSYSPTSPSYSPTSPKKK” for “MBP”
[9] = target: MAP kinase-activated protein kinase 5 (Homo sapiens) (UniProt Q8IW41); test: Inhibition of human MAPKAPK5 at 1 uM using RBER-CHKtide as substrate in presence of 33P-ATP by ProQinase assay
[10] = target: G protein-coupled receptor kinase 6 (Homo sapiens) (UniProt P43250); test: Inhibition of human GRK6 at 1 uM using casein as substrate in presence of 33P-ATP by ProQinase assay
[11] = target: Tyrosine-protein kinase Fer (Homo sapiens) (UniProt P16591); test: Inhibition of human FER at 1 uM using polyEY as substrate in presence of 33P-ATP by ProQinase assay
[12] = target: Protein kinase C gamma type (Homo sapiens) (UniProt P05129); test: Inhibition of recombinant human N-terminal GST-tagged PKCgamma (1 to 697 residues) expressed in baculovirus infected Sf21 cells assessed as remaining activity at 1 uM using Histone H1 as substrate incubated for 30 mins in presence of [gamma-33P]ATP by filter binding method relative to control
U2OS = test: Inhibition of PI3K in human U2OS cells expressing GFP-PHAkt1 assessed as reduction in IGF-stimulated PtdIns(3,4,5)P3/PtdIns(3,4)P2 level […] at 1 uM pre incubated for 1 hr followed by IGF stimulation and measured after 15 mins by Alexa Fluor 488 staining based fluorescence microscopic analysis; format: subcellular; conditions: time 1.25 hrs
[13] = target: Serine/threonine-protein kinase TBK1 (Homo sapiens) (UniProt Q9UHD2); test: Inhibition of human TBK1 at 1 uM using casein as substrate in presence of 33P-ATP by ProQinase assay
[14] = target: Insulin receptor (Homo sapiens) (UniProt P06213); test: Inhibition of human INSR at 1 uM using poly(Ala,Glu,Lys,Tyr) as substrate in presence of 33P-ATP by ProQinase assay
[15] = target: Mitogen-activated protein kinase 13 (Homo sapiens) (UniProt O15264); test: Inhibition of human p38delta at 1 uM using RBER-CHKtide as substrate in presence of 33P-ATP by ProQinase assay
[16] = target: Interleukin-1 receptor-associated kinase 4 (Homo sapiens) (UniProt Q9NWZ3); test: Inhibition of human IRAK4 at 1 uM using RB-CTF as substrate in presence of 33P-ATP by ProQinase assay
[17] = target: Serine/threonine-protein kinase 33 (Homo sapiens) (UniProt Q9BYT3); test: Inhibition of recombinant human N-terminal GST-tagged STK33 (1 to 514 residues) expressed in baculovirus infected Sf21 cells assessed as remaining activity at 1 uM using AALVRQMSVAFFFKKKKK as substrate incubated for 30 mins in presence of [gamma-33P]ATP by filter binding method relative to control
[18] = target: Serine/threonine-protein kinase pim-2 (Homo sapiens) (UniProt Q9P1W9); test: Inhibition of human PIM2 at 1 uM using RBER-GSK3 as substrate in presence of 33P-ATP by ProQinase assay
[19] = target: Serine/threonine-protein kinase MARK1 (Homo sapiens) (UniProt Q9P0L2); test: Inhibition of human MARK1 at 1 uM using RBER-CHKtide as substrate in presence of 33P-ATP by ProQinase assay
[20] = target: Receptor tyrosine-protein kinase erbB-2 (Homo sapiens) (UniProt P04626); test: Inhibition of human ERBB2 at 1 uM using polyEY as substrate in presence of 33P-ATP by ProQinase assay
[21] = target: Diacylglycerol kinase beta (Homo sapiens) (UniProt Q9Y6T7); test: Inhibition of DGKbeta (unknown origin) at 1 uM
[22] = target: SRSF protein kinase 2 (Homo sapiens) (UniProt P78362); test: Inhibition of human SRPK2 at 1 uM using MBP as substrate in presence of 33P-ATP by ProQinase assay
[23] = target: Rho-associated protein kinase 2 (Homo sapiens) (UniProt O75116); test: Inhibition of human ROCK2 at 1 uM using RB-S6P as substrate in presence of 33P-ATP by ProQinase assay
[24] = target: Misshapen-like kinase 1 (Homo sapiens) (UniProt Q8N4C8); test: Inhibition of recombinant human N-terminal GST-tagged MINK1 (1 to 320 residues) expressed in baculovirus infected Sf21 cells assessed as remaining activity at 1 uM using MBP as substrate incubated for 30 mins in presence of [gamma-33P]ATP by filter binding method relative to control
PI3K p110 beta/p85 alpha = PI3K p110 beta/p85 alpha (Homo sapiens, UniProt P42338); test: Inhibition of human PIK3CB/PIK3R1 using PIP2/PS as substrate by ADP-Glo assay; format: protein-complex assay
[25] = target: Choline kinase alpha (Homo sapiens) (UniProt P35790); test: Inhibition of recombinant human N-terminal GST-tagged CHKalpha (1 to 457 residues) expressed in Escherichia coli at 1 uM using choline chloride as substrate incubated for 40 mins by ADP-Glo assay

Inhibitor of nuclear factor kappa-B kinase subunit epsilon (Homo sapiens), sequence (Q14164 whole entry): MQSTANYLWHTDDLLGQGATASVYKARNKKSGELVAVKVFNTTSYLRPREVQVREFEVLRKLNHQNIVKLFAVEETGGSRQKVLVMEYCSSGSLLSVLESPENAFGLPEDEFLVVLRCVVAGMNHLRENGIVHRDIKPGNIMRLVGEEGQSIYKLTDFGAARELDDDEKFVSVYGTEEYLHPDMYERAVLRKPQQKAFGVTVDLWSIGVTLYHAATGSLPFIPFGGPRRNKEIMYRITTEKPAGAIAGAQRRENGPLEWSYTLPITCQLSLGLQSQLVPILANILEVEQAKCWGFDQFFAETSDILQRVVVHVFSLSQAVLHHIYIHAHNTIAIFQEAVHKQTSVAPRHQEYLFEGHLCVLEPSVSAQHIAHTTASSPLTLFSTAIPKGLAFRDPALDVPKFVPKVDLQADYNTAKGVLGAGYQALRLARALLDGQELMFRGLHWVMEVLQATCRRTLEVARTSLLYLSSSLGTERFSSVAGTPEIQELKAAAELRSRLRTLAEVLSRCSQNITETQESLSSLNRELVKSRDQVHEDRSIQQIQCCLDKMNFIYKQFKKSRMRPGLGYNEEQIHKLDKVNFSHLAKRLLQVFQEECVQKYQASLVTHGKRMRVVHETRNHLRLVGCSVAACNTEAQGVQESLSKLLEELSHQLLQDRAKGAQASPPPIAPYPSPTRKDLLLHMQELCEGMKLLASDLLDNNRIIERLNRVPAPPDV
Receptor tyrosine-protein kinase erbB-2 (Homo sapiens), sequence (P04626 whole entry): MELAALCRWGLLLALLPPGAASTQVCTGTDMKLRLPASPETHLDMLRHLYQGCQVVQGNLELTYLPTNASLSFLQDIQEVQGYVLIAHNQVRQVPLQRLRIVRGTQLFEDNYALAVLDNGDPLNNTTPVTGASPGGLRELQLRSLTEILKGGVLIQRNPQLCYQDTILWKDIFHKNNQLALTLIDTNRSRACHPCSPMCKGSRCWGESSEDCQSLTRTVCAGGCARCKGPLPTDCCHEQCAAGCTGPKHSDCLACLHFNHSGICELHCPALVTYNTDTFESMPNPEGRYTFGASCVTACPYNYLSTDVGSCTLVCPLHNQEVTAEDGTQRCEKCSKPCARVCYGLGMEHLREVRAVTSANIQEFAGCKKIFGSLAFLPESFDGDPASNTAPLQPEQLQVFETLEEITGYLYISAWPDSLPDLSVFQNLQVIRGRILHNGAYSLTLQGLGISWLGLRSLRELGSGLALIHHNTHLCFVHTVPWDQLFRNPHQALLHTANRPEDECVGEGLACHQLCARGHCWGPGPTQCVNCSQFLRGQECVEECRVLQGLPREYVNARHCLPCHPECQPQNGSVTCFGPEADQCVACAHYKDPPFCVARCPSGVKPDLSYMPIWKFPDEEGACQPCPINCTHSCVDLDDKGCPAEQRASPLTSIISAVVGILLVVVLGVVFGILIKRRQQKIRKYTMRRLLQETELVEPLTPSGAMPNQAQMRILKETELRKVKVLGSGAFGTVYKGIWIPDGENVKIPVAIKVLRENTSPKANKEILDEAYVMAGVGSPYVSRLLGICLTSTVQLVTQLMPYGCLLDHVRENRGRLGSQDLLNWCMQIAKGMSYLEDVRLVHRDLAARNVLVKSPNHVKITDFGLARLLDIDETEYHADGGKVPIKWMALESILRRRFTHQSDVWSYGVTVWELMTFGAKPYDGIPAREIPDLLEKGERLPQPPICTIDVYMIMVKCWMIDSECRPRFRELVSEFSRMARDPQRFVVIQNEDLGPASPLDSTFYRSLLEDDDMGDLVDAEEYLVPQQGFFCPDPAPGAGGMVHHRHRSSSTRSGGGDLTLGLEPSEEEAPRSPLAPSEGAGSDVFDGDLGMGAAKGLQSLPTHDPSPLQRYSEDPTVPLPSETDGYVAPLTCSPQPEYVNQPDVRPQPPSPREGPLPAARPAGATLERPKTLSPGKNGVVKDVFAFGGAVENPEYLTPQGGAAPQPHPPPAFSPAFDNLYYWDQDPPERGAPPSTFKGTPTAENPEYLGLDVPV
Serine/threonine-protein kinase MARK1 (Homo sapiens), sequence (Q9P0L2 whole entry, looked up): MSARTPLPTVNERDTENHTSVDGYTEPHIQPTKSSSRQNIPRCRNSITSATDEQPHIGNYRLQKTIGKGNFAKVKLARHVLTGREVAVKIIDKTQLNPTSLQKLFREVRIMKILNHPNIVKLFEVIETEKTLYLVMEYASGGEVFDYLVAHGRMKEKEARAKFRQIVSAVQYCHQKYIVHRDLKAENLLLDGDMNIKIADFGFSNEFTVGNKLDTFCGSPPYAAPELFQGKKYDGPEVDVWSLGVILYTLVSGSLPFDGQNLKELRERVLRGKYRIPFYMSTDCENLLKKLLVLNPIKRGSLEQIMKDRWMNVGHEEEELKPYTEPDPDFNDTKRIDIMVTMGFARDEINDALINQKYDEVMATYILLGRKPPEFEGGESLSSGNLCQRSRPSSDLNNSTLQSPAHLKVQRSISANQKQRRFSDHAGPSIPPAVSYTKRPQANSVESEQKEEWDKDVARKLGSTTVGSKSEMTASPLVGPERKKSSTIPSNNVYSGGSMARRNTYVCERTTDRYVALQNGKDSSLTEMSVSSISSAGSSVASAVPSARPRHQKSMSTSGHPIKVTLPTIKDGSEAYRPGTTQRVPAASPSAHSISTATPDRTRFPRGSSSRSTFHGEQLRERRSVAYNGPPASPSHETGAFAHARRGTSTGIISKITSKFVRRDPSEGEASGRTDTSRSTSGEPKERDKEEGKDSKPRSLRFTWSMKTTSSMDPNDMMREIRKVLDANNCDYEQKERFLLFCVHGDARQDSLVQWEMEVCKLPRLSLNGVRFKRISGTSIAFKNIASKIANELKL
Serine/threonine-protein kinase 33 (Homo sapiens), sequence (Q9BYT3 whole entry, looked up, the tested form may be a part): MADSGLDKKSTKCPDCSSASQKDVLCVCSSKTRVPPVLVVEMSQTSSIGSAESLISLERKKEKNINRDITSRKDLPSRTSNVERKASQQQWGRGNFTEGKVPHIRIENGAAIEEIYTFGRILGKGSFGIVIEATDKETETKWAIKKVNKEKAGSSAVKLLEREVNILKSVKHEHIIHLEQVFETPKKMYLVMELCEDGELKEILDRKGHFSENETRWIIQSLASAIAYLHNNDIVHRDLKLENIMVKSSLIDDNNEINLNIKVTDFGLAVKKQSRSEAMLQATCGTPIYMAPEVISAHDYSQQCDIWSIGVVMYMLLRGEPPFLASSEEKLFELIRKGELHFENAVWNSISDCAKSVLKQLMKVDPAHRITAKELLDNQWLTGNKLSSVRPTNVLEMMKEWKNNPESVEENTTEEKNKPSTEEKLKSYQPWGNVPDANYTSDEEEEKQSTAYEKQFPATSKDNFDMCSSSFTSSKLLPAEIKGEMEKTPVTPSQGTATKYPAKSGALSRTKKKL
Insulin receptor (Homo sapiens), sequence (P06213 28-758 limits assumed): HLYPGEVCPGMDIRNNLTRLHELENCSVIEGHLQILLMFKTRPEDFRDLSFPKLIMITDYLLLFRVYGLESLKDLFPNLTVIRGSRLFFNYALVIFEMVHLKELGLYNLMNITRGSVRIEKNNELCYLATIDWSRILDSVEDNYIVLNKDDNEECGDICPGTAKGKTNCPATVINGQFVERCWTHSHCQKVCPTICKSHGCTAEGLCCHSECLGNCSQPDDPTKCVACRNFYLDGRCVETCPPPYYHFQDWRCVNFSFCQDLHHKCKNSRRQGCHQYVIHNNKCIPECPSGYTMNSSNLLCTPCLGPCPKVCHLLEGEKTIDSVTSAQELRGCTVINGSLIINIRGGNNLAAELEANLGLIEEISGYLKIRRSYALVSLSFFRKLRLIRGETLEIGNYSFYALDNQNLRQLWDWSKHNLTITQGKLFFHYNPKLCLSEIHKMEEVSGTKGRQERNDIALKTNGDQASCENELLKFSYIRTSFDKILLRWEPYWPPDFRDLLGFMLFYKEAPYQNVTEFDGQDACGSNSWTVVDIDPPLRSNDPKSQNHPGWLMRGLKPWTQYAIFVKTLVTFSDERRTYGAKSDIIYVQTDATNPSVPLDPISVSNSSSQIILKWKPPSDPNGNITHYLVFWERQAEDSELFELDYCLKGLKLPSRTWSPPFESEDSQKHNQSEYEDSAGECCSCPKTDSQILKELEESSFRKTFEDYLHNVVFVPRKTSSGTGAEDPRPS
Insulin receptor (Homo sapiens), sequence (P06213 763-1382 limits assumed): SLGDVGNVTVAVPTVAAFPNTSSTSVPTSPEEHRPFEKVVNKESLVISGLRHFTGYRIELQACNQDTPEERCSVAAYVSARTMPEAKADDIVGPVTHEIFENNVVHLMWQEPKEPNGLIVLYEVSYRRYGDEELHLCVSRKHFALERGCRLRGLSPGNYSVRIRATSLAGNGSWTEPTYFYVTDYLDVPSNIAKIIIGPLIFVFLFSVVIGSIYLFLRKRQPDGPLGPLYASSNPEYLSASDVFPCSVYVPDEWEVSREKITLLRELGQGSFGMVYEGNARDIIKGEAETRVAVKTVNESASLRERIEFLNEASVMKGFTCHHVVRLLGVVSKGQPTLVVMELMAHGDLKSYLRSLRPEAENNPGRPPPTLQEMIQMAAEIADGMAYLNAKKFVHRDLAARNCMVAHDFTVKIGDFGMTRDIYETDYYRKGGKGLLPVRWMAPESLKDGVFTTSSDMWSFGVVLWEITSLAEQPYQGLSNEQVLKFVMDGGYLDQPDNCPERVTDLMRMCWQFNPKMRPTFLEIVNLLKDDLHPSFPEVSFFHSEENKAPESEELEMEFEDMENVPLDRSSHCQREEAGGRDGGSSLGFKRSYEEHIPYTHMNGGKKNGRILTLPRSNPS
Phosphatidylinositol 5-phosphate 4-kinase type-2 alpha (Homo sapiens), sequence (P48426 whole entry, the tested form may be a part): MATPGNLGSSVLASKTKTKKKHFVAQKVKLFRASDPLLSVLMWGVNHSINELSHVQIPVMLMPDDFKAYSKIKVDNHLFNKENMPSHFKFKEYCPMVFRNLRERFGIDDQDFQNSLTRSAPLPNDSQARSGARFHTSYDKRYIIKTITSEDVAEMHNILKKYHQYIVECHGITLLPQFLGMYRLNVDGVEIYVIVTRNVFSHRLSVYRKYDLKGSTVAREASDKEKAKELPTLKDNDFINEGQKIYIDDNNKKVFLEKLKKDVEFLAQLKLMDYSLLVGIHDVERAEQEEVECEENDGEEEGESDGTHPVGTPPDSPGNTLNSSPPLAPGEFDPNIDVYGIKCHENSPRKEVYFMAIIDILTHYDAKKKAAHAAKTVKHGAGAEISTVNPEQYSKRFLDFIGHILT

CC(C)(O)CNc1ncc(-c2ccnc(Nc3ccnc(Cl)c3)n2)c(CC2CC2)n1
inhibition [1]: inactive
inhibition [2]: inactive
IC50 [3]: 21.4 µM
IC50 [4]: > 10 µM
Activity [5]: 115%
inhibition [6]: inactive
inhibition [7]: inactive
Activity [8]: 88%
inhibition [9]: inactive
inhibition [10]: inactive
inhibition [11]: inactive
Activity [12]: 111%
inhibition (U2OS): inactive
inhibition [13]: inactive
inhibition [14]: inactive
inhibition [15]: inactive
inhibition [16]: inactive
Activity [17]: 124%
inhibition [18]: inactive
inhibition [19]: inactive
inhibition [20]: inactive
inhibition [21]: inactive
inhibition [22]: inactive
inhibition [23]: inactive
Activity [24]: 103%
IC50 (PI3K p110 beta/p85 alpha): > 10 µM
inhibition [25]: inactive
